Literature values as cited in patent publication US8703192B2, “Dosage form containing pantoprazole as active ingredient” (Takeda GmbH, priority 2003, dated 2014).

Conditions: in comparison to pantoprazole itself or to pantoprazole sodium sesquihydrate

stability properties: improved stability properties
Structure (SMILES): COc1ccnc(C[S+]([O-])c2nc3cc(OC(F)F)ccc3[n-]2)c1OC.COc1ccnc(C[S+]([O-])c2nc3cc(OC(F)F)ccc3[n-]2)c1OC.O.O.[Mg+2] (stereo not shown) [Magnesium bis[5-[difluoromethoxy]-2-[[3,4-dimethoxy-2-pyridinyl]-methyl]sulfinyl]-1H-benzimidazolide]dihydrate]
